Results taken from patent publication US20020091107A1 (published 2002).

SMILES	melting point
CC(=O)NC[C@H]1CN(c2ccc(/C=C3/C(=O)N(C)c4ccccc43)cc2)C(=O)O1	193 to 195 °C
CC(=O)NC[C@H]1CN(c2ccc(/C=C3\C(=O)N(c4ccccc4)N=C3C(C)(C)C)cc2)C(=O)O1	70 °C
